Laboratory results as given in ChEMBL document CHEMBL1201862, “PubChem BioAssay data set” (2004).
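Where inhibition never reached the appropriate level, the endpoint shown equals the highest concentration tested. Otherwise, values were interpolated linearly from a five-concentration, 48-hour dose response in 96-well plates. At the GI50, growth is halved.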 The source made the active and inactive calls. No stated cut-off is given here; in the data, active = GI50 up to about 1.1 µM and inactive = higher.

Tests used:
Assay in all cases: NCI-60 cell line screen, 48 h
CCRF-CEM = tested on: CCRF-CEM
SK-MEL-28 = tested on: SK-MEL-28
UACC-62 = tested on: UACC-62
Hs-578T = tested on: Hs-578T
U-251 = tested on: U-251
SK-MEL-2 = tested on: SK-MEL-2
NCI/ADR-RES = tested on: NCI/ADR-RES
SNB-19 = tested on: SNB-19
K562 = tested on: K562
IGROV-1 = tested on: IGROV-1
Malme-3M = tested on: Malme-3M
SR = tested on: SR
ACHN = tested on: ACHN
NCI-H226 = tested on: NCI-H226
UO-31 = tested on: UO-31
SN12C = tested on: SN12C
CAKI-1 = tested on: CAKI-1
A549 = tested on: A549
HOP-92 = tested on: HOP-92
KM12 = tested on: KM12
SW-620 = tested on: SW-620
COLO 205 = tested on: COLO 205
DU-145 = tested on: DU-145
SK-OV-3 = tested on: SK-OV-3
MDA-N = tested on: MDA-N
RPMI-8226 = tested on: RPMI-8226
M14 = tested on: M14
NCI-H522 = tested on: NCI-H522
786-0 = tested on: 786-0
HOP-62 = tested on: HOP-62
MOLT-4 = tested on: MOLT-4
OVCAR-8 = tested on: OVCAR-8
HCT-15 = tested on: HCT-15
HT-29 = tested on: HT-29
OVCAR-5 = tested on: OVCAR-5
NCI-H23 = tested on: NCI-H23
SK-MEL-5 = tested on: SK-MEL-5
OVCAR-3 = tested on: OVCAR-3
EKVX = tested on: EKVX
SF-268 = tested on: SF-268
MDA-MB-231 = tested on: MDA-MB-231
PC-3 = tested on: PC-3
BT-549 = tested on: BT-549
SF-295 = tested on: SF-295
OVCAR-4 = tested on: OVCAR-4
A498 = tested on: A498
HL-60 = tested on: HL-60
NCI-H460 = tested on: NCI-H460
SNB-75 = tested on: SNB-75
MDA-MB-435 = tested on: MDA-MB-435
T47D = tested on: T47D
RXF 393 = tested on: RXF 393
SF-539 = tested on: SF-539
HCT-116 = tested on: HCT-116
MCF7 = tested on: MCF7
UACC-257 = tested on: UACC-257
TK-10 = tested on: TK-10
LOX IMVI = tested on: LOX IMVI

C1=N\CCNCC/N=C\c2ccc(cc2)OCc2cccc(n2)COc2ccc/1cc2
GI50 (CCRF-CEM): > 100 µM (inactive) | GI50 (SK-MEL-28): > 100 µM (inactive) | GI50 (UACC-62): > 100 µM (inactive) | GI50 (Hs-578T): 23.5 µM (inactive) | GI50 (U-251): 32 µM (inactive) | GI50 (SK-MEL-2): 70.3 µM (inactive) | GI50 (NCI/ADR-RES): 63.1 µM (inactive) | GI50 (SNB-19): 49 µM (inactive) | GI50 (K562): > 100 µM (inactive) | GI50 (IGROV-1): 66.7 µM (inactive) | GI50 (Malme-3M): 90.8 µM (inactive) | GI50 (SR): > 100 µM (inactive) | GI50 (ACHN): 29.7 µM (inactive) | GI50 (NCI-H226): > 100 µM (inactive) | GI50 (UO-31): > 100 µM (inactive) | GI50 (SN12C): > 100 µM (inactive) | GI50 (CAKI-1): > 100 µM (inactive) | GI50 (A549): > 100 µM (inactive) | GI50 (HOP-92): > 100 µM (inactive) | GI50 (KM12): > 100 µM (inactive) | GI50 (SW-620): > 100 µM (inactive) | GI50 (COLO 205): > 100 µM (inactive) | GI50 (DU-145): > 100 µM (inactive) | GI50 (SK-OV-3): 36.3 µM (inactive) | GI50 (MDA-N): > 100 µM (inactive) | GI50 (RPMI-8226): > 100 µM (inactive) | GI50 (M14): 77.6 µM (inactive) | GI50 (NCI-H522): 26.9 µM (inactive) | GI50 (786-0): 40.2 µM (inactive) | GI50 (HOP-62): 21.4 µM (inactive) | GI50 (MOLT-4): > 100 µM (inactive) | GI50 (OVCAR-8): 39.5 µM (inactive) | GI50 (HCT-15): 97.1 µM | GI50 (HT-29): > 100 µM (inactive) | GI50 (OVCAR-5): > 100 µM (inactive) | GI50 (NCI-H23): 66.7 µM (inactive) | GI50 (SK-MEL-5): 65.8 µM (inactive) | GI50 (OVCAR-3): > 100 µM (inactive) | GI50 (EKVX): > 100 µM (inactive) | GI50 (SF-268): 22.2 µM (inactive) | GI50 (MDA-MB-231): 30.7 µM (inactive) | GI50 (PC-3): 78.2 µM (inactive) | GI50 (BT-549): 66.4 µM (inactive) | GI50 (SF-295): 24.7 µM (inactive) | GI50 (OVCAR-4): 97.3 µM (inactive) | GI50 (A498): > 100 µM (inactive) | GI50 (HL-60): > 100 µM (inactive) | GI50 (NCI-H460): > 100 µM (inactive) | GI50 (SNB-75): 23 µM (inactive) | GI50 (MDA-MB-435): > 100 µM (inactive) | GI50 (T47D): > 100 µM (inactive) | GI50 (RXF 393): 98.9 µM (inactive) | GI50 (SF-539): 47.1 µM (inactive) | GI50 (HCT-116): > 100 µM (inactive) | GI50 (MCF7): > 100 µM (inactive) | GI50 (UACC-257): > 100 µM (inactive)

O=C(O)c1cnc2c(ccc3ncc(C(=O)O)c(O)c32)c1O
GI50 (SK-MEL-28): > 100 µM (inactive) | GI50 (UACC-62): > 100 µM (inactive) | GI50 (Hs-578T): > 100 µM (inactive) | GI50 (U-251): > 100 µM (inactive) | GI50 (SK-MEL-2): > 100 µM (inactive) | GI50 (NCI/ADR-RES): > 100 µM (inactive) | GI50 (SNB-19): > 100 µM (inactive) | GI50 (K562): > 100 µM (inactive) | GI50 (IGROV-1): > 100 µM (inactive) | GI50 (Malme-3M): > 100 µM (inactive) | GI50 (SR): > 100 µM (inactive) | GI50 (ACHN): > 100 µM (inactive) | GI50 (NCI-H226): > 100 µM (inactive) | GI50 (UO-31): > 100 µM (inactive) | GI50 (SN12C): > 100 µM (inactive) | GI50 (CAKI-1): > 100 µM (inactive) | GI50 (A549): > 100 µM (inactive) | GI50 (HOP-92): > 100 µM (inactive) | GI50 (KM12): > 100 µM (inactive) | GI50 (SW-620): > 100 µM (inactive) | GI50 (COLO 205): > 100 µM (inactive) | GI50 (DU-145): > 100 µM (inactive) | GI50 (SK-OV-3): > 100 µM (inactive) | GI50 (MDA-N): > 100 µM (inactive) | GI50 (RPMI-8226): > 100 µM (inactive) | GI50 (M14): > 100 µM (inactive) | GI50 (NCI-H522): > 100 µM (inactive) | GI50 (786-0): > 100 µM (inactive) | GI50 (HOP-62): > 100 µM (inactive) | GI50 (MOLT-4): > 100 µM (inactive) | GI50 (OVCAR-8): > 100 µM (inactive) | GI50 (HCT-15): > 100 µM | GI50 (TK-10): > 100 µM (inactive) | GI50 (HT-29): > 100 µM (inactive) | GI50 (OVCAR-5): > 100 µM (inactive) | GI50 (NCI-H23): > 100 µM (inactive) | GI50 (SK-MEL-5): > 100 µM (inactive) | GI50 (OVCAR-3): > 100 µM (inactive) | GI50 (EKVX): > 100 µM (inactive) | GI50 (SF-268): > 100 µM (inactive) | GI50 (MDA-MB-231): > 100 µM (inactive) | GI50 (PC-3): > 100 µM (inactive) | GI50 (BT-549): > 100 µM (inactive) | GI50 (LOX IMVI): > 100 µM (inactive) | GI50 (SF-295): > 100 µM (inactive) | GI50 (OVCAR-4): > 100 µM (inactive) | GI50 (A498): > 100 µM (inactive) | GI50 (HL-60): > 100 µM (inactive) | GI50 (NCI-H460): > 100 µM (inactive) | GI50 (SNB-75): 34.8 µM (inactive) | GI50 (MDA-MB-435): > 100 µM (inactive) | GI50 (T47D): > 100 µM (inactive) | GI50 (RXF 393): > 100 µM (inactive) | GI50 (SF-539): > 100 µM (inactive) | GI50 (HCT-116): > 100 µM (inactive) | GI50 (MCF7): > 100 µM (inactive) | GI50 (UACC-257): > 100 µM (inactive)

O=C(O)CCC(C(=O)O)N1C(=O)C2C3CCC(C3)C2C1=O (stereo not drawn)
GI50 (SK-MEL-28): > 100 µM (inactive) | GI50 (UACC-62): > 100 µM (inactive) | GI50 (Hs-578T): > 100 µM (inactive) | GI50 (U-251): > 100 µM (inactive) | GI50 (SK-MEL-2): > 100 µM (inactive) | GI50 (NCI/ADR-RES): > 100 µM (inactive) | GI50 (SNB-19): > 100 µM (inactive) | GI50 (K562): > 100 µM (inactive) | GI50 (IGROV-1): > 100 µM (inactive) | GI50 (Malme-3M): > 100 µM (inactive) | GI50 (SR): > 100 µM (inactive) | GI50 (ACHN): > 100 µM (inactive) | GI50 (NCI-H226): > 100 µM (inactive) | GI50 (SN12C): > 100 µM (inactive) | GI50 (CAKI-1): > 100 µM (inactive) | GI50 (A549): > 100 µM (inactive) | GI50 (HOP-92): > 100 µM (inactive) | GI50 (KM12): > 100 µM (inactive) | GI50 (SW-620): > 100 µM (inactive) | GI50 (COLO 205): > 100 µM (inactive) | GI50 (DU-145): > 100 µM (inactive) | GI50 (SK-OV-3): > 100 µM (inactive) | GI50 (MDA-N): > 100 µM (inactive) | GI50 (RPMI-8226): > 100 µM (inactive) | GI50 (M14): > 100 µM (inactive) | GI50 (NCI-H522): > 100 µM (inactive) | GI50 (786-0): > 100 µM (inactive) | GI50 (HOP-62): > 100 µM (inactive) | GI50 (MOLT-4): > 100 µM (inactive) | GI50 (OVCAR-8): > 100 µM (inactive) | GI50 (HCT-15): > 100 µM | GI50 (TK-10): > 100 µM (inactive) | GI50 (HT-29): > 100 µM (inactive) | GI50 (OVCAR-5): > 100 µM (inactive) | GI50 (NCI-H23): > 100 µM (inactive) | GI50 (SK-MEL-5): > 100 µM (inactive) | GI50 (OVCAR-3): > 100 µM (inactive) | GI50 (EKVX): > 100 µM (inactive) | GI50 (SF-268): > 100 µM (inactive) | GI50 (MDA-MB-231): > 100 µM (inactive) | GI50 (PC-3): > 100 µM (inactive) | GI50 (BT-549): > 100 µM (inactive) | GI50 (LOX IMVI): > 100 µM (inactive) | GI50 (SF-295): > 100 µM (inactive) | GI50 (OVCAR-4): > 100 µM (inactive) | GI50 (A498): > 100 µM (inactive) | GI50 (NCI-H460): > 100 µM (inactive) | GI50 (SNB-75): > 100 µM (inactive) | GI50 (MDA-MB-435): > 100 µM (inactive) | GI50 (T47D): > 100 µM (inactive) | GI50 (RXF 393): > 100 µM (inactive) | GI50 (SF-539): > 100 µM (inactive) | GI50 (HCT-116): > 100 µM (inactive) | GI50 (MCF7): > 100 µM (inactive) | GI50 (UACC-257): > 100 µM (inactive)
